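Grown in 96-well plates, cells were treated for 48 hours with each compound at five concentrations. Insufficient inhibition: endpoint recorded as highest concentration tested. Here, GI50 denotes the concentration required for 50% inhibition of growth. TGI: concentration producing complete growth inhibition.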
Columns and labels:
Assay in all cases: NCI anticancer screen, dose series, 48 h
[1] = tested on: 786-0 renal
[2] = tested on: COLO 205 colon
[3] = tested on: DLD-1 colon
[4] = tested on: HOP-92 NSCLC
[5] = tested on: KM20L2 colon
[6] = tested on: OVCAR-5 ovarian
[7] = tested on: RPMI-8226 leukemia
[8] = tested on: SK-MEL-5 melanoma
[9] = tested on: UACC-62 melanoma
[10] = tested on: MCF7 breast

SMILES | TGI [1] | TGI [2] | TGI [3] | TGI [4] | TGI [5] | TGI [6] | TGI [7] | TGI [8] | TGI [9] | GI50 [10] | TGI [10]
NC1N=Nc2ccccc21 (centres undefined) | > 100 µM | > 100 µM | > 100 µM | > 100 µM | > 100 µM | > 100 µM | > 100 µM | – | – | – | –
COc1cccc2c1OC1Sc3ccccc3-c3nn(-c4ccccc4)c-2c31 (centres undefined) | > 100 µM | > 100 µM | > 100 µM | > 100 µM | > 100 µM | > 100 µM | > 100 µM | – | – | – | –
N#CCCN(CCC#N)c1ccc(/C=C(/NC(=O)c2cc([N+](=O)[O-])ccc2Cl)C(=O)NN)cc1 | > 100 µM | > 100 µM | > 100 µM | – | > 100 µM | > 100 µM | > 100 µM | > 100 µM | > 100 µM | – | –
Nc1nc(N)c(CCCCc2ccccc2)c(C=O)n1 | 29.4 µM | > 100 µM | 46.2 µM | – | 90 µM | > 100 µM | 41.2 µM | 34.9 µM | 30.8 µM | – | –
COc1ccc2c(c1)Oc1cc(O)ccc1[C@H]2c1ccccc1C(=O)NC(C)c1ccccc1 (some centres undefined) | 34.9 µM | 31.3 µM | 43.4 µM | – | 35.3 µM | 29.4 µM | 23.6 µM | 29.2 µM | 24.8 µM | – | –
CC(=O)c1ccccc1NC(=O)C(=O)C(C(=O)c1ccc2ccccc2c1)C1OC(=O)c2ccccc21 (centres undefined) | 20.9 µM | 30.2 µM | 32.3 µM | 41.1 µM | 94 µM | 52.9 µM | 52.7 µM | 24.4 µM | 28.1 µM | – | –
COc1cc2c(cc1OC)C(C#N)N(C(=O)c1ccccc1)C=C2OC(=O)c1ccccc1 (centres undefined) | 34.7 µM | > 100 µM | > 100 µM | 77 µM | > 100 µM | > 100 µM | > 100 µM | 44.9 µM | 45 µM | – | –
O=C(Cc1ccccc1[N+](=O)[O-])C(CO)c1ccccc1[N+](=O)[O-] (centres undefined) | > 100 µM | > 100 µM | > 100 µM | 93.3 µM | > 100 µM | > 100 µM | > 100 µM | > 100 µM | > 100 µM | – | –
OCC1OC2c3ccccc3COC2C1OCc1ccccc1 (centres undefined) | > 100 µM | > 100 µM | > 100 µM | – | > 100 µM | > 100 µM | > 100 µM | > 100 µM | > 100 µM | – | –
N#CC1C[C@@H]2CC3(CCC2CN1C(=O)c1ccccc1)OCCO3 (some centres undefined) | > 100 µM | > 100 µM | > 100 µM | > 100 µM | > 100 µM | > 100 µM | > 100 µM | > 100 µM | > 100 µM | > 100 µM | > 100 µM
CCC12CCCN(Cc3ccccc3)C1c1c(n(C)c3ccccc13)C(CO)C2 (centres undefined) | 79.5 µM | 75.2 µM | > 257 µM | 110 µM | 78.1 µM | 75.6 µM | 108 µM | 76.9 µM | 115 µM | – | –
CC1(C)NC(=O)N(CCCCCCN2C(=O)NC(C)(C)C2=O)C1=O | > 100 µM | > 100 µM | > 100 µM | > 100 µM | > 100 µM | > 100 µM | > 100 µM | – | > 100 µM | – | –
CCc1ccccc1NC(=O)C(=O)C(C#N)c1ccccc1Cl (centres undefined) | > 100 µM | > 100 µM | > 100 µM | > 100 µM | > 100 µM | > 100 µM | > 100 µM | > 100 µM | > 100 µM | – | –
O=C(O)CN(c1ccccc1)S(=O)(=O)c1cccc([N+](=O)[O-])c1 | > 100 µM | > 100 µM | > 100 µM | > 100 µM | > 100 µM | > 100 µM | > 100 µM | > 100 µM | > 100 µM | – | –

— PubChem BioAssay (NCI)
